# Results published in patent US20110190137A1, “METHOD TO INHIBIT ETHYLENE RESPONSES IN PLANTS” (priority 2003, published 2011).
# Key:
# [1] = test system: ethylene-induced epinasty in Patio variety tomato plants; assay: Tomato epinasty test, spray application treatment; assay type: in vivo; settings: spray 10 ppm in 10% acetone/90% water, 0.05% Silwett L-77; 10 ppm ethylene; scale 0 to 10 (10 = complete protection)
# Experimental: (§1) Objective: The test procedure is designed to determine the ability of an experimental compound to block the epinastic growth response induced by ethylene in tomato plants when the experimental compound is administered either as a volatile gas or as a component of a spray solution.
# (§2) Treatment chambers are of an appropriate size for the test plants and are airtight. Each is fitted with a reusable septum to be used for injection of ethylene. Test plants are Patio variety tomato seedlings planted two plants per three inch square plastic pot.
# Spray application treatment entails using a DeVilbiss atomizer to completely cover all foliage and stems of two pots of Patio var. tomato plants with the appropriate amount of experimental compound dissolved in 10% acetone/90% water with 0.05% Silwett L-77 surfactant. Plants are air-dried in a drying hood for four hours then transferred to a 4.8 L polystyrene chamber which is sealed.
# Ethylene gas equal to 10 ppm v/v final concentration is injected into the sealed chamber. Sixteen hours later the chambers are opened in an exhaust hood, allowed to air and the plants scored visually for the degree of protection against ethylene-induced epinasty conferred by the experimental compound when compared to ethylene treated and untreated controls on a scale of 0 to 10. A rating of 10 means complete protection. A rating of 0 means no protection from the effects of ethylene.
# [2] = test system: ethylene-induced epinasty in Patio variety tomato plants; assay: Tomato epinasty test, volatile gas treatment; assay type: in vivo; settings: for Gas @ 10 ppm: visual rating of protection against ethylene-induced epinasty: gas 10 ppm v/v, 10 ppm ethylene, scale 0 to 10 (10 = complete protection); for Gas @ 1000 ppm: visual rating of protection against ethylene-induced epinasty: gas 1000 ppm v/v, 10 ppm ethylene after 4 h, scored 16 h later, scale 0 (no protection) to 10 (complete protection)
# Experimental: as §1, §2
# Volatile gas treatment entails placing two pots of Patio var. tomatoes into a polystyrene 4.8 L volume treatment chamber along with one-half (upper or lower section) of a 50×9 mm plastic Petri dish containing a Gelman filter pad. The appropriate amount of experimental compound, dissolved in 1.0 ml acetone, is pipetted onto the filter pad and the chamber immediately sealed. Four hours later ethylene gas equal to 10 ppm v/v final concentration is injected into the sealed chamber. Sixteen hours later the chambers are opened in an exhaust hood, allowed to air and the plants scored visually for the degree of protection against ethylene-induced epinasty conferred by the experimental compound when compared to ethylene treated and untreated controls on a scale of 0 to 10. A rating of 10 means complete protection. A rating of 0 means no protection from the effects of ethylene. Gas treatment concentrations are volume/volume.
compound,measurement,setting,value
O=C(OCCC1=CC1)c1ccc(-n2cccc2)cc1 [Compound 62],Spray @10 ppm: visual rating of protection against ethylene-induced epinasty,[1],0
same,Gas @ 10 ppm: visual rating of protection against ethylene-induced epinasty,[2],0
same,Gas @ 509 ppm: rating of protection against epinasty,"[2]; gas 509 ppm (in cell), scale 0 to 10",10(@509
"C[Si](C)(C)CCCCCCC1C=C1 [Compound 65, 6-(Trimethylsilyl)-hexylcycloprop-2-ene]",Spray @10 ppm: visual rating of protection against ethylene-induced epinasty,[1],6
same,Gas @ 10 ppm: visual rating of protection against ethylene-induced epinasty,[2],10
1-(1-Methyl-2-pyrrolecarbonyloxypropyl)-cyclopropene [Compound 59],Spray @10 ppm: visual rating of protection against ethylene-induced epinasty,[1],4
same,Gas @ 10 ppm: visual rating of protection against ethylene-induced epinasty,[2],3
Cc1cc(C)c(CC2=CC2)c(C)c1 [Compound 30],Spray @10 ppm: visual rating of protection against ethylene-induced epinasty,[1],0
same,Gas @ 10 ppm: visual rating of protection against ethylene-induced epinasty,[2],3
same,Gas @ 1000 ppm: visual rating of protection against ethylene-induced epinasty,[2],8
"ClC1=C(c2ccccc2)C1(Cl)Cl [Compound 41, 1-Phenyl-2,3,3-trichlorocyclopropene]",Spray @10 ppm: visual rating of protection against ethylene-induced epinasty,[1],0
same,Gas @ 10 ppm: visual rating of protection against ethylene-induced epinasty,[2],0
same,Gas @ 1000 ppm: visual rating of protection against ethylene-induced epinasty,[2],2
"CCCCCCCCC1=CC1C(=O)O (stereo not shown) [Compound 78, 1-Octyl-3-carboxy-cyclopropene]",Spray @10 ppm: visual rating of protection against ethylene-induced epinasty,[1],0
same,Gas @ 10 ppm: visual rating of protection against ethylene-induced epinasty,[2],0
same,Gas @ 500 ppm: rating of protection against epinasty,[2]; scale 0 to 10,10
same,Gas @ 1000 ppm: visual rating of protection against ethylene-induced epinasty,[2],5
"CC(C)(C1=CC1)c1ccccc1 [Compound 5, 1-(α,α-dimethylbenzyl)-cyclopropene]",Spray @10 ppm: visual rating of protection against ethylene-induced epinasty,[1],2
same,Gas @ 10 ppm: visual rating of protection against ethylene-induced epinasty,[2],5
"CCSCCCCCCCC1=CC1 [Compound 70, 1-(7-Ethanethioheptyl)-cyclopropene]",Spray @10 ppm: visual rating of protection against ethylene-induced epinasty,[1],10
same,Gas @ 10 ppm: visual rating of protection against ethylene-induced epinasty,[2],2
"O=S(=O)(OCCCCCCCCC1=CC1)c1ccccc1 [Compound 56, 1-(8-Benzenesulfonyloxyoctyl)-cyclopropene]",Spray @10 ppm: visual rating of protection against ethylene-induced epinasty,[1],10
same,Gas @ 10 ppm: visual rating of protection against ethylene-induced epinasty,[2],5
"C1=C(CCCSc2ccccn2)C1 [Compound 55, 1-(2-Pyridylthiopropyl)-cyclopropene]",Spray @10 ppm: visual rating of protection against ethylene-induced epinasty,[1],3
same,Gas @ 800 ppm: rating of protection against epinasty,"[2]; gas 800 ppm (in cell), scale 0 to 10",10(@800
"COc1cccc(C(O)C2=C(C)C2)c1 (stereo not shown) [Compound 39, 1-Methyl-2-(hydroxy(3-methoxyphenyl)methyl)cyclopropene]",Spray @10 ppm: visual rating of protection against ethylene-induced epinasty,[1],0
same,Gas @ 10 ppm: visual rating of protection against ethylene-induced epinasty,[2],2
same,Gas @ 1000 ppm: visual rating of protection against ethylene-induced epinasty,[2],10
"O=C(O)CC1(c2ccccc2)C(c2ccccc2)=C1c1ccccc1 [Compound 40, 3-Hydroxycarbonylmethyl-1,2,3-triphenylcyclopropene]",Spray @10 ppm: visual rating of protection against ethylene-induced epinasty,[1],0
same,Gas @ 10 ppm: visual rating of protection against ethylene-induced epinasty,[2],7
"CC1(c2ccccc2)C=C1 [Compound 6, 3-Methyl-3-phenylcyclopropene]",Spray @10 ppm: visual rating of protection against ethylene-induced epinasty,[1],1
same,Gas @ 10 ppm: visual rating of protection against ethylene-induced epinasty,[2],2.5
same,Gas @ 1000 ppm: visual rating of protection against ethylene-induced epinasty,[2],7
C1=C(Cc2ccccc2)C1 [Compound 17],Spray @10 ppm: visual rating of protection against ethylene-induced epinasty,[1],2
same,Gas @ 10 ppm: visual rating of protection against ethylene-induced epinasty,[2],9
"C1=C(CCCCCCCn2ccnc2)C1 [Compound 12, 7-(1-Imidazole)-1-heptylcyclopropene]",Spray @10 ppm: visual rating of protection against ethylene-induced epinasty,[1],3.5
same,Gas @ 10 ppm: visual rating of protection against ethylene-induced epinasty,[2],5.5
same,"Gas, tested at 850 ppm: rating of protection against epinasty","[2]; gas 850 ppm (footnote b or in cell), scale 0 to 10",10^b
"CCC1=C(n2cc(Br)cn2)C1 [Compound 11, 2-(1-(4-Bromopyrazole))-1-ethylcyclopropene]",Spray @10 ppm: visual rating of protection against ethylene-induced epinasty,[1],0
same,Gas @ 10 ppm: visual rating of protection against ethylene-induced epinasty,[2],2
same,"Gas, tested at 600 ppm: rating of protection against epinasty","[2]; gas 600 ppm (footnote a), scale 0 to 10",8^a
"C(CCCCCCC1=CC1)=NN1CCCCC1 [Compound 36, 1-(7-(N-piperidinoimino-heptyl))-cyclopropene]",Spray @10 ppm: visual rating of protection against ethylene-induced epinasty,[1],3
same,Gas @ 10 ppm: visual rating of protection against ethylene-induced epinasty,[2],5
same,Gas @ 500 ppm: rating of protection against epinasty,[2]; scale 0 to 10,10^c^
Cc1ccc(CC2=CC2)cc1 [Compound 24],Spray @10 ppm: visual rating of protection against ethylene-induced epinasty,[1],10
same,Gas @ 10 ppm: visual rating of protection against ethylene-induced epinasty,[2],10
"CCCCCC1(C)C=C1 [Compound 72, 3-Methyl-3-pentyl-cyclopropene]",Spray @10 ppm: visual rating of protection against ethylene-induced epinasty,[1],2
same,Gas @ 10 ppm: visual rating of protection against ethylene-induced epinasty,[2],0
same,Gas @ 1000 ppm: visual rating of protection against ethylene-induced epinasty,[2],9
COc1ccccc1CC1=CC1 [Compound 26],Spray @10 ppm: visual rating of protection against ethylene-induced epinasty,[1],5
same,Gas @ 10 ppm: visual rating of protection against ethylene-induced epinasty,[2],10
O=C(OCCC1=CC1)c1ccoc1 [Compound 48],Gas @ 10 ppm: visual rating of protection against ethylene-induced epinasty,[2],10
O=C(OCCCCCCCC1=CC1)C1CCCO1 (stereo not shown) [Compound 54],Spray @10 ppm: visual rating of protection against ethylene-induced epinasty,[1],0
same,Gas @ 10 ppm: visual rating of protection against ethylene-induced epinasty,[2],0
same,Gas @ 1000 ppm: visual rating of protection against ethylene-induced epinasty,[2],2
C1=C(CCSc2ccccn2)C1 [Compound 35],Spray @10 ppm: visual rating of protection against ethylene-induced epinasty,[1],9
same,Gas @ 10 ppm: visual rating of protection against ethylene-induced epinasty,[2],10
Cc1cc(C)nc(CCC2=CC2)n1 [Compound 42],Spray @10 ppm: visual rating of protection against ethylene-induced epinasty,[1],2
same,Gas @ 343.4 ppm: rating of protection against epinasty,"[2]; gas 343.4 ppm (in cell), scale 0 to 10",3(@ 343.4
"Cc1ccc(SCCCCCCCCC2=CC2)cc1 [Compound 57, 1-(4-Methylphenylthiooctyl)-cyclopropene]",Spray @10 ppm: visual rating of protection against ethylene-induced epinasty,[1],2
same,Gas @ 10 ppm: visual rating of protection against ethylene-induced epinasty,[2],0
same,Gas @ 1000 ppm: visual rating of protection against ethylene-induced epinasty,[2],10
C1=C(CCCc2ccccc2)C1 [Compound 25],Spray @10 ppm: visual rating of protection against ethylene-induced epinasty,[1],10
same,Gas @ 10 ppm: visual rating of protection against ethylene-induced epinasty,[2],10
CC(=O)OCOC(=O)CCC1=C(Br)C1 [Compound 75],Spray @10 ppm: visual rating of protection against ethylene-induced epinasty,[1],0
same,Gas @ 10 ppm: visual rating of protection against ethylene-induced epinasty,[2],10
"CC1=C([Si](C)(C)C)C1(C)C [Compound 79, 1-Trimethylsilyl-2,3,3-trimethylcyclopropene]",Gas @ 10 ppm: visual rating of protection against ethylene-induced epinasty,[2],10
